Data taken from ChEMBL document CHEMBL5543156, “Selective Elimination of Senescent Cancer Cells by Galacto-Modified PROTACs” (J Med Chem, 2024).
Activity calls are given as the source filed them. No cut-off for these calls is given here.

What was measured:
A549 [1] = test: Induction of apoptosis in human normal (non-senescent) A549 cells assessed as necrotic cells at 1 uM incubated for 24 hrs by FITC/PI staining based flow cytometry analysis (reference value: 0.29%); format: functional
[2] = molecular target: T1, Bromodomain-containing protein 4 (Homo sapiens, UniProt O60885); test: Induction of BRD4 degradation in human A549 cells at 50 nM incubated for 16 hrs in presence of MG-132 by Western blot analysis; format: cell-based
A549 [3] = test: Antiproliferative activity against human senescent A549 cells assessed as reduction in cell viability incubated for 72 hrs by CCK-8 assay; format: functional, cell-based; conditions: A549, 72 h
[4] = Toxicity in SCID mouse xenografted with human A549 cells change in body weight at 20 mg/kg, sc administered daily for 19 days; format: organism-based; conditions: in vivo, 456 h, time 19 day
[5] = molecular target: T1, Bromodomain-containing protein 4; test: Induction of BRD4 degradation in human normal (non-senescent) A549 cells at 50 to 100 nM by SA-beta-Gal staining assay; format: cell-based; conditions: dose 50-100 nM
A549 [6] = test: Senolytic index, ratio of IC50 for antiproliferative activity against human normal (non-senescent) A549 cells assessed as reduction in cell viability to IC50 for antiproliferative activity against human senescent A549 cells assessed as reduction in cell viability; format: functional
A549 [7] = test: Induction of apoptosis in human senescent A549 cells assessed as late apoptotic cells at 1 uM incubated for 24 hrs by FITC/PI staining based flow cytometry analysis (reference value: 12.2%); format: functional
[8] = molecular target: T1, Bromodomain-containing protein 4; test: Induction of BRD4 degradation in etoposide-induced human senescent A549 cells pretreated with etoposide for 3 days followed by compound administration and measured after 15 mins by SA-beta-Gal staining assay; format: cell-based
A549 [9] = test: Antiproliferative activity against human normal (non-senescent) A549 cells assessed as reduction in cell viability incubated for 72 hrs by CCK-8 assay; format: functional, cell-based; conditions: A549, 72 h
A549 [10] = test: Induction of apoptosis in human senescent A549 cells assessed as necrotic cells at 1 uM incubated for 24 hrs by FITC/PI staining based flow cytometry analysis (reference value: 0.15%); format: functional
A549 [11] = test: Induction of apoptosis in human normal (non-senescent) A549 cells assessed as viable cells at 1 uM incubated for 24 hrs by FITC/PI staining based flow cytometry analysis (reference value: 94.6%); format: functional; conditions: read-out: Activity
A549 [12] = test: Induction of apoptosis in human senescent A549 cells assessed as early apoptotic cells at 1 uM incubated for 24 hrs by FITC/PI staining based flow cytometry analysis (reference value: 0.68%); format: functional
A549 [13] = test: Induction of apoptosis in human normal (non-senescent) A549 cells assessed as late apoptotic cells at 1 uM incubated for 24 hrs by FITC/PI staining based flow cytometry analysis (reference value: 1.97%); format: functional
A549 [14] = test: Induction of apoptosis in human senescent A549 cells assessed as viable cells at 1 uM incubated for 24 hrs by FITC/PI staining based flow cytometry analysis (reference value: 86.9%); format: functional; conditions: read-out: Activity
A549 [15] = test: Antitumor activity against human A549 cells xenografted in SCID mouse assessed as tumor growth inhibition at 20 mg/kg, sc administered daily for 19 days; format: functional; conditions: A549, 456 h, time 19 day, read-out: TGI
A549 [16] = test: Induction of apoptosis in human normal (non-senescent) A549 cells assessed as early apoptotic cells at 1 uM incubated for 24 hrs by FITC/PI staining based flow cytometry analysis (reference value: 3.14%); format: functional
[17] = molecular target: T1, Bromodomain-containing protein 4; test: Induction of BRD4 degradation in etoposide-induced human senescent A549 cells incubated for 16 hrs by Western blot analysis; format: cell-based
[18] = molecular target: T1, Bromodomain-containing protein 4; test: Induction of BRD4 degradation in human HeLa cells by SA-beta-Gal staining assay; format: cell-based
[19] = molecular target: T1, Bromodomain-containing protein 4; test: Induction of BRD4 degradation in human U87 cells by SA-beta-Gal staining assay; format: cell-based
A549 [20] = test: Effect on BTBD8 level in etoposide-induced human senescent A549 cells at 50 nM incubated for 16 hrs by Proteomic analysis; format: functional, cell-based
A549 [21] = test: Antitumor activity against human A549 cells xenografted in SCID mouse assessed as decrease in p21 level in tumor at 20 mg/kg, sc administered daily for 19 days in presence of etoposide by IHC analysis; format: functional, organism-based; conditions: time 19.0 day
A549 [22] = test: Antitumor activity against etoposide-induced human A549 cells xenografted in SCID mouse assessed as tumor growth inhibition at 20 mg/kg, sc administered daily for 19 days; format: functional, organism-based; conditions: time 19.0 day
[23] = molecular target: T1, Bromodomain-containing protein 4; test: Induction of BRD4 degradation in etoposide-induced human senescent HeLa cells by SA-beta-Gal staining assay; format: cell-based
[24] = molecular target: T1, Bromodomain-containing protein 4; test: Induction of BRD4 degradation in etoposide-induced human senescent U87 cells by SA-beta-Gal staining assay; format: cell-based
A549 [25] = test: Antitumor activity against human A549 cells xenografted in SCID mouse assessed as reduction in BRD4 level in tumor at 20 mg/kg, sc administered daily for 19 days by IHC analysis; format: functional, organism-based; conditions: time 19.0 day
A549 [26] = test: Effect on ARGAL level in etoposide-induced human senescent A549 cells at 50 nM incubated for 16 hrs by Proteomic analysis; format: functional, cell-based
A549 [27] = test: Antitumor activity against human A549 cells xenografted in SCID mouse assessed as increase in cleaved caspase-3 level in tumor at 20 mg/kg, sc administered daily for 19 days in presence of etoposide by IHC analysis; format: functional, organism-based; conditions: time 19.0 day
[28] = Stability of the compound in fetal bovine serum incubated for 24 hrs by Real-tie ultrafast liquid chromatography analysis; format: ADME, cell-free, Bos taurus; conditions: cattle
[29] = Stability of the compound assessed as porcine liver esterase-mediated hydrolysis measured at 16 hrs by Real-time ultrafast liquid chromatography analysis; format: ADME, Sus scrofa; conditions: pig, isolated protein
[30] = molecular target: T1, Bromodomain-containing protein 4; test: Induction of BRD4 degradation in etoposide-induced human senescent A549 cells at 100 nM pretreated with etoposide for 3 days followed by compound administration and measured after 15 mins by SA-beta-Gal staining assay; format: cell-based
A549 [31] = test: Downregulation of BRD4 expression in etoposide-induced human senescent A549 cells at 50 nM incubated for 16 hrs by Proteomic analysis; format: functional, cell-based
A549 [32] = test: Antitumor activity against human A549 cells xenografted in SCID mouse assessed as reduction in ki67 level in tumor at 20 mg/kg, sc administered daily for 19 days in presence of etoposide by IHC analysis; format: functional, organism-based; conditions: time 19.0 day
KARPAS-299 [33] = test: Senolytic index, ratio of IC50 for antiproliferative activity against human normal (non-senescent) KARPAS-299 cells assessed as reduction in cell viability to IC50 for antiproliferative activity against human senescent KARPAS-299 cells assessed as reduction in cell viability; format: functional
KARPAS-299 [34] = test: Antiproliferative activity against human normal (non-senescent) KARPAS-299 cells assessed as reduction in cell viability incubated for 72 hrs by CCK-8 assay; format: functional, cell-based; conditions: KARPAS-299, 72 h
KARPAS-299 [35] = test: Antiproliferative activity against human senescent KARPAS-299 cells assessed as reduction in cell viability incubated for 72 hrs by CCK-8 assay; format: functional, cell-based; conditions: KARPAS-299, 72 h
[36] = molecular target: T2, NPM/ALK (Nucleophosmin/ALK tyrosine kinase receptor) (Homo sapiens) (UniProt Q9UM73+P06748); test: Induction of NPM-ALK degradation in human senescent KARPAS-299 cells at 1 uM incubated for 16 hrs by Western blot analysis; format: cell-based
T2 sequence (P06748 whole entry partner): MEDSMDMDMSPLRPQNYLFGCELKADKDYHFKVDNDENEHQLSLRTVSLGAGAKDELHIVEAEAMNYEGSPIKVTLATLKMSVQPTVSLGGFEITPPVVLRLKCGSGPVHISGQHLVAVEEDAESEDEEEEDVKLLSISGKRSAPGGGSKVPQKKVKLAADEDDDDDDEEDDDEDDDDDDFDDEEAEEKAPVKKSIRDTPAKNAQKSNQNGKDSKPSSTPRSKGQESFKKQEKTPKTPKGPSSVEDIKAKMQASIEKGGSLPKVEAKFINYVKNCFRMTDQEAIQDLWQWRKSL
T2 sequence (Q9UM73 19-1620 limits assumed): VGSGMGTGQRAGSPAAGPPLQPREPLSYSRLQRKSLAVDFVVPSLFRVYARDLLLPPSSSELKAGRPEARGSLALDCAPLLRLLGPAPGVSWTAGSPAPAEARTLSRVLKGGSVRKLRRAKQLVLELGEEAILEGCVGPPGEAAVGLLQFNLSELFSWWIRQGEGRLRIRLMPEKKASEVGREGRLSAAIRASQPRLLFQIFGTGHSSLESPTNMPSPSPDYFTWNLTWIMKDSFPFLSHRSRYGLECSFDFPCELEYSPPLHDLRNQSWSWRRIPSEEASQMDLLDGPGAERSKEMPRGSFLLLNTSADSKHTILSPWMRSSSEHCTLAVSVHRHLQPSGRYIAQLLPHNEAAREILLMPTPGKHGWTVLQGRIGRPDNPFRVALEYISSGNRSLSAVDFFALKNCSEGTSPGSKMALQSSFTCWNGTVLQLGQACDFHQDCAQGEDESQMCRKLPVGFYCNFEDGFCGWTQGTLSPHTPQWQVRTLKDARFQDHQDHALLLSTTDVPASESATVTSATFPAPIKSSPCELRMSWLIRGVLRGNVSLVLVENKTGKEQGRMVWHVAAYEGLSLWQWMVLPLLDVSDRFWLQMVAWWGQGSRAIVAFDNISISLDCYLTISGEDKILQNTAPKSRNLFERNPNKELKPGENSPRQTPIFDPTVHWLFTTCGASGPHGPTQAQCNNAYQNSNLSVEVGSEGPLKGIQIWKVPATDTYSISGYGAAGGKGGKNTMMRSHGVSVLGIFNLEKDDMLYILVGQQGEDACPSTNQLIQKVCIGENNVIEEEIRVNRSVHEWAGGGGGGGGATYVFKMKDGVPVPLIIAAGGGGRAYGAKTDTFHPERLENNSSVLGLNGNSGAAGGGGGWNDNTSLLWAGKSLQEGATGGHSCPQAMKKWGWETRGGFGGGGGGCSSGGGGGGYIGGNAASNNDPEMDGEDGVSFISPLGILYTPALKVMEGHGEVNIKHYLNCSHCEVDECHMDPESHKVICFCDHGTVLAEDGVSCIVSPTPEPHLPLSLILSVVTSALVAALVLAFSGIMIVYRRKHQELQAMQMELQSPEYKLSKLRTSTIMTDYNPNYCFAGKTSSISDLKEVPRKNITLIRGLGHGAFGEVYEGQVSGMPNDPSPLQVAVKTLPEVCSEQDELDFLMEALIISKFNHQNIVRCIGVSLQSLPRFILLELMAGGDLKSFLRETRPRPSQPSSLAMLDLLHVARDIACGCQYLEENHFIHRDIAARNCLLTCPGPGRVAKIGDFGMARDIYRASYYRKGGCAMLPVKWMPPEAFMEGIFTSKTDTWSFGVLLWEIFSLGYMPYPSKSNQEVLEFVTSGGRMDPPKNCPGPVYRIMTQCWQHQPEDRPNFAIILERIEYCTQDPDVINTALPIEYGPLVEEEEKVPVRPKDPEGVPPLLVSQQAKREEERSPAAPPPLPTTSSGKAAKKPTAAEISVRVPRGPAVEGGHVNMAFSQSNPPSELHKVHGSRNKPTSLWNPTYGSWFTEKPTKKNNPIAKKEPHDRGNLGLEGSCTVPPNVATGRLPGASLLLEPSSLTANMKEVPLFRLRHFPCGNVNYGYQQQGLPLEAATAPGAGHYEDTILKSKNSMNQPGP

[37] = molecular target: T2, NPM/ALK (Nucleophosmin/ALK tyrosine kinase receptor) (Homo sapiens); test: Induction of NPM-ALK degradation in human normal (non-senescent) KARPAS-299 cells at 1 uM incubated for 16 hrs by Western blot analysis; format: cell-based

Activity [2] | IC50 (A549 [3]) [nM] | Activity [8] | IC50 (KARPAS-299 [35]) [nM] | Activity [36] | Compound | Activity (A549 [1]) [%] | Activity [4] | Ratio IC50 (A549 [6]) | Activity (A549 [7]) [%] | IC50 (A549 [9]) [nM] | Activity (A549 [10]) [%] | viability at 1 µM (A549 [11]) [%] | Activity (A549 [12]) [%] | Activity (A549 [13]) [%] | viability at 1 µM (A549 [14]) [%] | inhibition in vivo at 20 mg/kg (A549 [15]) [%] | Activity (A549 [16]) [%] | Ratio IC50 (KARPAS-299 [33]) | IC50 (KARPAS-299 [34]) [nM] | other results
Active | 603 | Active | – | – | Cc1ncsc1-c1ccc([C@H](C)NC(=O)[C@@H]2C[C@@H](O)CN2C(=O)[C@@H](NC(=O)COCCCOCCNC(=O)C[C@@H]2N=C(c3ccc(Cl)cc3)c3c(sc(C)c3C)-n3c(C)nnc32)C(C)(C)C)cc1 | 0.98 | Non-Toxic | 0.59 | 14.2 | 640 | 0.09 | 72.2 | 17 | 6.76 | 68.7 | 74 | 20.1 | – | – | Activity [5]: Active
Active | 354 | Active | – | – | CC(=O)OC[C@H]1O[C@@H](Oc2ccc(COC(=O)O[C@@H]3C[C@@H](C(=O)N[C@@H](C)c4ccc(-c5scnc5C)cc4)N(C(=O)[C@@H](NC(=O)COCCCOCCNC(=O)C[C@@H]4N=C(c5ccc(Cl)cc5)c5c(sc(C)c5C)-n5c(C)nnc54)C(C)(C)C)C3)cc2)[C@H](OC(C)=O)[C@@H](OC(C)=O)[C@H]1OC(C)=O | 0.68 | Non-Toxic | 5.17 | 14.8 | 3290 | 0.1 | 86.5 | 16.7 | 4.72 | 68.3 | 80 | 8.07 | – | – | DC50 [17]: 18.3 nM; Activity [18]: Active; Activity [19]: Active; Activity (A549 [20]): Active; Activity (A549 [21]): Active; TGI (A549 [22]): Active; Activity [23]: Active; Activity [24]: Active; Activity (A549 [25]): Active; Activity (A549 [26]): Active; Activity (A549 [27]): Active; Stability [28]: Stable; Stability [29]: Stable; Activity [30]: Active; Activity (A549 [31]): Active; Activity (A549 [32]): Active
– | – | – | 232 | Active | Cc1cc(Nc2ncc(Cl)c(Nc3ccccc3S(=O)(=O)C(C)C)n2)c(OC(C)C)cc1C1CCN(C(=O)CCCC(=O)N[C@H](C(=O)N2C[C@H](O)C[C@H]2C(=O)N[C@@H](C)c2ccc(-c3scnc3C)cc2)C(C)(C)C)CC1 | – | – | – | – | – | – | – | – | – | – | – | – | 1.59 | 369 | –
– | – | – | 455 | Active | CC(=O)OC[C@H]1O[C@@H](Oc2ccc(COC(=O)O[C@@H]3C[C@@H](C(=O)N[C@@H](C)c4ccc(-c5scnc5C)cc4)N(C(=O)[C@@H](NC(=O)CCCC(=O)N4CCC(c5cc(OC(C)C)c(Nc6ncc(Cl)c(Nc7ccccc7S(=O)(=O)C(C)C)n6)cc5C)CC4)C(C)(C)C)C3)cc2)[C@H](OC(C)=O)[C@@H](OC(C)=O)[C@H]1OC(C)=O | – | – | – | – | – | – | – | – | – | – | – | – | 4.75 | 2160 | Activity [37]: inactive
